Reference: patent publication US20250353891A1 (MEDIMMUNE LIMITED, priority 2022, published 2025)
Starred links: 1 amine or outer side, 2 acyl side, 3 side chain; linkers in the order of their positions; H or OH if unused. Non-standard residues stand in square brackets, D forms with d. Residues, ends and D or L forms follow the SMILES beside them. Groups on a side chain read outwards from the residue. *: point of attachment. γGlu = O=C(O)[C@H](CCC(=O)[*:2])N[*:1]; Stearoyl = CCCCCCCCCCCCCCCCCC(=O)*; Palmitoyl = CCCCCCCCCCCCCCCC(=O)*; αMeF = C[C@](N)(Cc1ccccc1)C(=O)O; PEG2 = NCCOCCOCCC(=O)O; Aib = CC(C)(N)C(=O)O

Key:
[1] = molecular target: human glucagon receptor (hGCGR) (Homo sapiens, UniProt P47871); assay: cAMP production (HTRF) in CHO cells expressing hGCGR; assay type: cell-based; parameters: expressed in transfected cells; settings: Table 6, peptides modified at position 17; cAMP in CHO hGCGR cells; geometric mean; read-out: hGluc-R EC50
Sequence of human glucagon receptor (hGCGR) (P47871 26-477): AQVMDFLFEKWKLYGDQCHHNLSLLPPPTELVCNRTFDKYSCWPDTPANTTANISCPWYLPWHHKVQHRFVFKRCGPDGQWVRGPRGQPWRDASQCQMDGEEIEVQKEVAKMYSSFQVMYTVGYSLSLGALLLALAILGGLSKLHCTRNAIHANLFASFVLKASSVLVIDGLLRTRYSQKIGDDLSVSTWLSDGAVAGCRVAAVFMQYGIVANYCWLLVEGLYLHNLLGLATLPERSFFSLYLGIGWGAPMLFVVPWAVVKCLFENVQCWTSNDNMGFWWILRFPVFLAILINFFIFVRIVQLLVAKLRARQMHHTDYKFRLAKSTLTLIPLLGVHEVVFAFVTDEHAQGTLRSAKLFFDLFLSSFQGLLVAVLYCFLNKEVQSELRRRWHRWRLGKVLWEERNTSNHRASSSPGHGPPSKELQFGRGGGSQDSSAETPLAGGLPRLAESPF
Outline: (§1)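 Cells were resuspended in assay buffer at batch-optimized density, typically 1×10^5 cells/mL for hGLP-1R and 2×10^5 cells/mL for hGCGR. After 30 min incubation at room temperature with compound, cAMP was measured by two-step HTRF. EC50 values came from 4-parameter logistic fits of % Delta F.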

[2] = molecular target: human GLP-1 receptor (hGLP-1R) (Homo sapiens, UniProt P43220); assay: cAMP production (HTRF) in CHO cells expressing hGLP-1R; assay type: cell-based; parameters: expressed in transfected cells; settings: for % Relative Potency Ratio: Table 6, % GLP-1R activity relative to GLP-1 / % GlucR activity relative to glucagon; for EC50: Table 6, peptides modified at position 17, cAMP in CHO hGLP-1R cells, geometric mean, read-out: hGLP-1R EC50
Sequence of human GLP-1 receptor (hGLP-1R) (P43220 24-463): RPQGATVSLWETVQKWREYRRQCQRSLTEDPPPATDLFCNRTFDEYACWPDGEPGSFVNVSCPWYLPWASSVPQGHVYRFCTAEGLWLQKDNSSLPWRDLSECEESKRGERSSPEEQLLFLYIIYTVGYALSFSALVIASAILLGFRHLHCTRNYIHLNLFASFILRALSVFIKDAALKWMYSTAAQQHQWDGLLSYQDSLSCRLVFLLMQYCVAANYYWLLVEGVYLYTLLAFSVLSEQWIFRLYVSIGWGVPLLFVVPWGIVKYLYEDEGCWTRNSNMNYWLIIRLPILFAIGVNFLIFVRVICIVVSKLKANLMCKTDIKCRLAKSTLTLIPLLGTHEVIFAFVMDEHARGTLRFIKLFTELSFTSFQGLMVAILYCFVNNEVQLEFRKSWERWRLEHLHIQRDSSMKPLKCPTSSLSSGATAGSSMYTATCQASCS
Outline: as §1

SMILES	EC50 [1]	% Relative Potency Ratio [2]	EC50 [2]
CCCCCCCCCCCCCCCCCC(=O)N[C@@H](CCC(=O)N[C@@H](CCC(=O)NCCOCCOCCC(=O)NCCOCCOCCC(=O)NCCCC[C@H](NC(=O)[C@H](CO)NC(=O)[C@H](CC(=O)O)NC(=O)[C@H](CC(C)C)NC(=O)C(C)(C)NC(=O)[C@H](CCCCN)NC(=O)[C@H](CO)NC(=O)[C@@H](NC(=O)[C@H](CC(=O)O)NC(=O)[C@H](CO)NC(=O)[C@@H](NC(=O)[C@](C)(Cc1ccccc1)NC(=O)[C@H](CO)NC(=O)CNC(=O)[C@H](CCC(N)=O)NC(=O)[C@H](CO)NC(=O)[C@@H](N)Cc1c[nH]cn1)[C@@H](C)O)C(C)C)C(=O)N[C@@H](C)C(=O)N[C@@H](C)C(=O)N[C@@H](CCC(N)=O)C(=O)N[C@@H](CC(=O)O)C(=O)N[C@@](C)(Cc1ccccc1)C(=O)N[C@H](C(=O)N[C@@H](CCC(N)=O)C(=O)NC(C)(C)C(=O)N[C@H](C(=O)N[C@H](C(=O)N[C@@H](CCC(=O)O)C(N)=O)[C@@H](C)CC)[C@@H](C)CC)C(C)C)C(=O)O)C(=O)O [Peptide 98] (H-HSQGS[αMeF]TSDVSK[Aib]LDSK([PEG2-PEG2-γGlu-γGlu-Stearoyl])AAQD[αMeF]VQ[Aib]IIE-NH2; N-terminus assumed)	0.0541 nM	43.8	0.00244 nM
CCCCCCCCCCCCCCCCCC(=O)N[C@@H](CCC(=O)N[C@@H](CCC(=O)NCCOCCOCCC(=O)NCCOCCOCCC(=O)NCCCC[C@H](NC(=O)[C@H](CO)NC(=O)[C@H](CC(=O)O)NC(=O)[C@H](CC(C)C)NC(=O)C(C)(C)NC(=O)[C@H](CCCCN)NC(=O)[C@H](CO)NC(=O)[C@@H](NC(=O)[C@H](CC(=O)O)NC(=O)[C@H](CO)NC(=O)[C@@H](NC(=O)[C@](C)(Cc1ccccc1)NC(=O)[C@H](CO)NC(=O)CNC(=O)[C@H](CCC(N)=O)NC(=O)C(C)(C)NC(=O)[C@@H](N)Cc1c[nH]cn1)[C@@H](C)O)C(C)C)C(=O)N[C@@H](C)C(=O)N[C@@H](C)C(=O)N[C@@H](CCC(N)=O)C(=O)N[C@@H](CC(=O)O)C(=O)N[C@@](C)(Cc1ccccc1)C(=O)N[C@H](C(=O)N[C@@H](CCC(N)=O)C(=O)NC(C)(C)C(=O)N[C@H](C(=O)N[C@@H](C)C(=O)N[C@@H](CC(N)=O)C(N)=O)[C@@H](C)CC)C(C)C)C(=O)O)C(=O)O [Peptide 100] (H-H[Aib]QGS[αMeF]TSDVSK[Aib]LDSK([PEG2-PEG2-γGlu-γGlu-Stearoyl])AAQD[αMeF]VQ[Aib]IAN-NH2; N-terminus assumed)	0.0405 nM	310.3	
CCCCCCCCCCCCCCCCCC(=O)N[C@@H](CCC(=O)N[C@@H](CCC(=O)NCCOCCOCCC(=O)NCCOCCOCCC(=O)NCCCC[C@H](NC(=O)[C@H](CO)NC(=O)[C@H](CC(=O)O)NC(=O)[C@H](CC(C)C)NC(=O)C(C)(C)NC(=O)[C@H](CCCCN)NC(=O)[C@H](CO)NC(=O)[C@@H](NC(=O)[C@H](CC(=O)O)NC(=O)[C@H](CO)NC(=O)[C@@H](NC(=O)[C@](C)(Cc1ccccc1)NC(=O)[C@H](CO)NC(=O)CNC(=O)[C@H](CCC(N)=O)NC(=O)C(C)(C)NC(=O)[C@@H](N)Cc1c[nH]cn1)[C@@H](C)O)C(C)C)C(=O)N[C@@H](C)C(=O)N[C@@H](C)C(=O)N[C@@H](CCC(N)=O)C(=O)N[C@@H](CC(=O)O)C(=O)N[C@@](C)(Cc1ccccc1)C(=O)N[C@H](C(=O)N[C@@H](CCC(N)=O)C(=O)N[C@@H](Cc1c[nH]c2ccccc12)C(=O)N[C@H](C(=O)N[C@@H](C)C(=O)N[C@@H](CC(N)=O)C(N)=O)[C@@H](C)CC)C(C)C)C(=O)O)C(=O)O [Peptide 103] (H-H[Aib]QGS[αMeF]TSDVSK[Aib]LDSK([PEG2-PEG2-γGlu-γGlu-Stearoyl])AAQD[αMeF]VQWIAN-NH2; N-terminus assumed)	0.0594 nM	220.8	
CCCCCCCCCCCCCCCCCC(=O)N[C@@H](CCC(=O)N[C@@H](CCC(=O)NCCOCCOCCC(=O)NCCOCCOCCC(=O)NCCCC[C@H](NC(=O)[C@H](CO)NC(=O)[C@H](CC(=O)O)NC(=O)[C@H](CC(C)C)NC(=O)C(C)(C)NC(=O)[C@H](CCCCN)NC(=O)[C@H](CO)NC(=O)[C@@H](NC(=O)[C@H](CC(=O)O)NC(=O)[C@H](CO)NC(=O)[C@@H](NC(=O)[C@](C)(Cc1ccccc1)NC(=O)[C@H](CO)NC(=O)CNC(=O)[C@H](CCC(N)=O)NC(=O)[C@@H](NC(=O)[C@@H](N)Cc1c[nH]cn1)[C@@H](C)O)[C@@H](C)O)C(C)C)C(=O)N[C@@H](C)C(=O)N[C@@H](C)C(=O)N[C@@H](CCC(N)=O)C(=O)N[C@@H](CC(=O)O)C(=O)N[C@@](C)(Cc1ccccc1)C(=O)N[C@H](C(=O)N[C@@H](CCC(N)=O)C(=O)NC(C)(C)C(=O)N[C@H](C(=O)N[C@@H](C)C(=O)N[C@@H](CC(N)=O)C(N)=O)[C@@H](C)CC)C(C)C)C(=O)O)C(=O)O [Peptide 104] (H-HTQGS[αMeF]TSDVSK[Aib]LDSK([PEG2-PEG2-γGlu-γGlu-Stearoyl])AAQD[αMeF]VQ[Aib]IAN-NH2; N-terminus assumed)	0.0456 nM	0.4	0.247 nM
CCCCCCCCCCCCCCCC(=O)N[C@@H](CCC(=O)N[C@@H](CCC(=O)NCCOCCOCCC(=O)NCCOCCOCCC(=O)NCCCC[C@H](NC(=O)[C@H](CO)NC(=O)[C@H](CC(=O)O)NC(=O)[C@H](CC(C)C)NC(=O)C(C)(C)NC(=O)[C@H](CCCCN)NC(=O)[C@H](CO)NC(=O)[C@@H](NC(=O)[C@H](CC(=O)O)NC(=O)[C@H](CO)NC(=O)[C@@H](NC(=O)[C@](C)(Cc1ccccc1)NC(=O)[C@H](CO)NC(=O)CNC(=O)[C@H](CCC(N)=O)NC(=O)[C@H](CO)NC(=O)[C@@H](N)Cc1c[nH]cn1)[C@@H](C)O)C(C)C)C(=O)N[C@@H](CCC(N)=O)C(=O)N[C@@H](C)C(=O)N[C@@H](CCC(N)=O)C(=O)N[C@@H](CC(=O)O)C(=O)N[C@@](C)(Cc1ccccc1)C(=O)N[C@H](C(=O)N[C@@H](CCC(N)=O)C(=O)NC(C)(C)C(=O)N[C@H](C(=O)N[C@@H](C)C(=O)N[C@@H](CC(N)=O)C(N)=O)[C@@H](C)CC)C(C)C)C(=O)O)C(=O)O [Peptide 105] (H-HSQGS[αMeF]TSDVSK[Aib]LDSK([PEG2-PEG2-γGlu-γGlu-Palmitoyl])QAQD[αMeF]VQ[Aib]IAN-NH2)	0.121 nM	3.7	0.0648 nM

Molecules with a lower EC50 [1], results first:

EC50 [1]	% Relative Potency Ratio [2]	EC50 [2]	SMILES
0.0125 nM	40.6		CCCCCCCCCCCCCCCCCC(=O)N[C@@H](CCC(=O)N[C@@H](CCC(=O)NCCOCCOCCC(=O)NCCOCCOCCC(=O)NCCCC[C@H](NC(=O)[C@H](CO)NC(=O)[C@H](CC(=O)O)NC(=O)[C@H](CC(C)C)NC(=O)C(C)(C)NC(=O)[C@H](CCCCN)NC(=O)[C@H](CO)NC(=O)[C@@H](NC(=O)[C@H](CC(=O)O)NC(=O)[C@H](CO)NC(=O)[C@@H](NC(=O)[C@](C)(Cc1ccccc1)NC(=O)[C@H](CO)NC(=O)CNC(=O)[C@H](CCC(N)=O)NC(=O)[C@H](CO)NC(=O)[C@@H](N)Cc1c[nH]cn1)[C@@H](C)O)C(C)C)C(=O)N[C@@H](C)C(=O)N[C@@H](C)C(=O)N[C@@H](CCC(N)=O)C(=O)N[C@@H](CC(=O)O)C(=O)N[C@@](C)(Cc1ccccc1)C(=O)N[C@H](C(=O)N[C@@H](CCC(N)=O)C(=O)NC(C)(C)C(=O)N[C@@H](CC(C)C)C(=O)N[C@@H](C)C(=O)N[C@@H](CC(N)=O)C(=O)N[C@H](C(N)=O)[C@@H](C)O)C(C)C)C(=O)O)C(=O)O [Peptide 95] (H-HSQGS[αMeF]TSDVSK[Aib]LDSK([PEG2-PEG2-γGlu-γGlu-Stearoyl])AAQD[αMeF]VQ[Aib]LANT-NH2; N-terminus assumed)
0.0332 nM	29.7	0.00221 nM	CCCCCCCCCCCCCCCC(=O)N[C@@H](CCC(=O)N[C@@H](CCC(=O)NCCOCCOCCC(=O)NCCOCCOCCC(=O)NCCCC[C@H](NC(=O)[C@H](CO)NC(=O)[C@H](CC(=O)O)NC(=O)[C@H](CC(C)C)NC(=O)C(C)(C)NC(=O)[C@H](CCCCN)NC(=O)[C@H](CO)NC(=O)[C@@H](NC(=O)[C@H](CC(=O)O)NC(=O)[C@H](CO)NC(=O)[C@@H](NC(=O)[C@](C)(Cc1ccccc1)NC(=O)[C@H](CO)NC(=O)CNC(=O)[C@H](CCC(N)=O)NC(=O)[C@H](CO)NC(=O)[C@@H](N)Cc1c[nH]cn1)[C@@H](C)O)C(C)C)C(=O)N[C@@H](C)C(=O)N[C@@H](C)C(=O)N[C@@H](CCC(N)=O)C(=O)N[C@@H](CC(=O)O)C(=O)N[C@@](C)(Cc1ccccc1)C(=O)N[C@H](C(=O)N[C@@H](CCC(N)=O)C(=O)NC(C)(C)C(=O)N[C@H](C(=O)N[C@@H](C)C(=O)N[C@@H](CC(N)=O)C(N)=O)[C@@H](C)CC)C(C)C)C(=O)O)C(=O)O [Peptide 99] (H-HSQGS[αMeF]TSDVSK[Aib]LDSK([PEG2-PEG2-γGlu-γGlu-Palmitoyl])AAQD[αMeF]VQ[Aib]IAN-NH2; N-terminus assumed)
0.0368 nM	10.7	0.00682 nM	CCCCCCCCCCCCCCCC(=O)N[C@@H](CCC(=O)N[C@@H](CCC(=O)NCCOCCOCCC(=O)NCCOCCOCCC(=O)NCCCC[C@H](NC(=O)[C@H](CO)NC(=O)[C@H](CC(=O)O)NC(=O)[C@H](CC(C)C)NC(=O)C(C)(C)NC(=O)[C@H](CCCCN)NC(=O)[C@H](CO)NC(=O)[C@@H](NC(=O)[C@H](CC(=O)O)NC(=O)[C@H](CO)NC(=O)[C@@H](NC(=O)[C@](C)(Cc1ccccc1)NC(=O)[C@H](CO)NC(=O)CNC(=O)[C@H](CCC(N)=O)NC(=O)[C@H](CO)NC(=O)[C@@H](N)Cc1c[nH]cn1)[C@@H](C)O)C(C)C)C(=O)N[C@@H](C)C(=O)N[C@@H](C)C(=O)N[C@@H](CCC(N)=O)C(=O)N[C@@H](CC(=O)O)C(=O)N[C@@](C)(Cc1ccccc1)C(=O)N[C@H](C(=O)N[C@@H](CCC(N)=O)C(=O)N[C@@H](Cc1c[nH]cn1)C(=O)N[C@H](C(=O)N[C@@H](C)C(=O)N[C@@H](CC(N)=O)C(N)=O)[C@@H](C)CC)C(C)C)C(=O)O)C(=O)O [Peptide 106] (H-HSQGS[αMeF]TSDVSK[Aib]LDSK([PEG2-PEG2-γGlu-γGlu-Palmitoyl])AAQD[αMeF]VQHIAN-NH2)
